The structures appear in SMILES notation.

The target in the experiment is T1, ERR-α (Homo sapiens, UniProt P11474).
T1 construct: made in house; host or cells: Spodoptera frugiperda (Sf9) insect cells, baculovirus
T1 sequence (P11474 with tags, fused parts or gaps): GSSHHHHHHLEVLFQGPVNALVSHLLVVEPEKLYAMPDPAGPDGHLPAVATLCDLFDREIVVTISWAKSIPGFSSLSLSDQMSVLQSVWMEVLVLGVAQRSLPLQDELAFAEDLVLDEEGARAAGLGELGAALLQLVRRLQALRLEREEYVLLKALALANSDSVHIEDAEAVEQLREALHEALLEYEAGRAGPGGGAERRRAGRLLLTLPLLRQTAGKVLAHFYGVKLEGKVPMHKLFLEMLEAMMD
In words: LC/MS kinetics of association and dissociation for ligands forming a covalent bond to Cys325 of ERR-α. It counts as binding. The following applies: dissociation rate by LC/MS with 20-fold excess Compound 2 as competing ligand; 37° C. From the text: The progress of the reaction was also expressed as a fraction of the area observed for the complex of ERR-α and the competing ligand over the sum of total area for the complex of ERR-α with the ligand and the complex of ERR-α with the competing ligand.
where k is the apparent rate constant.
In the case of `COc1cc(/C=C2\SC(=O)NC2=O)ccc1Oc1ccc(C#N)cc1C(F)(F)F` [Compound 1], the kd came to 1.1e-05 s⁻¹. On to `COc1cc(/C=C2\SC(N3CCN(C)CC3)=NC2=O)ccc1Oc1ccc(C#N)cc1C(F)(F)F` [Compound 3], for which the kd came to 1.53e-05 s⁻¹.

Regarding `CN1CCN(C2=NC(=O)/C(=C/c3ccc(Oc4ccc(C#N)cc4C(F)(F)F)c(F)c3)S2)CC1` [Compound 4], the kd was found to be 2.19e-05 s⁻¹. Consider `COc1cc(/C=C2\SC(N)=NC2=O)ccc1Oc1ccc(C#N)cc1C(F)(F)F` [Compound 5], for which the kd is 2.05e-05 s⁻¹.
